Experimental data taken from patent US20230085307A1, “PYRIDAZINONE COMPOUND AND HERBICIDE” (NISSAN CHEMICAL CORPORATION, priority 2019, published 2023).

How the values were obtained:
[1] = test system: late watergrass; assay: Test Example 1: herbicidal activity, application before weed generation under submerged conditions (Table 16, symbol A); type: in vivo, late watergrass (Echinochloa oryzicola); conditions: for Herbicidal effect on A: late watergrass (grade 0-5): 320 g/ha applied herbicide
Method in brief: (§1)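 Alluvial soil was flooded to 4 cm depth, weed seeds were sown mixed and 2.5-leaf rice seedlings were transplanted. On sowing day, the compound's emulsion, diluted in water to a set dose, was applied to the water surface. Plants grew at 25–30 °C and were scored 0–5 after three weeks.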

[2] = test system: Japanese bulrush; assay: Test Example 1: herbicidal activity, application before weed generation under submerged conditions (Table 16, symbol B); type: in vivo, Japanese bulrush (Schoenoplectus juncoides); conditions: for Herbicidal effect on B: Japanese bulrush (grade 0-5): 320 g/ha applied herbicide
Method in brief: as §1

[3] = test system: oval-leafed pondweed; assay: Test Example 1: herbicidal activity, application before weed generation under submerged conditions (Table 16, symbol C); type: in vivo, oval-leafed pondweed (Monochoria vaginalis); conditions: for Herbicidal effect on C: oval-leafed pondweed (grade 0-5): 320 g/ha applied herbicide
Method in brief: as §1

[4] = test system: barnyard grass; assay: Test Example 3: herbicidal effect by foliage application, Wagner pot (Table 18, symbol H); type: in vivo, barnyard grass (Echinochloa crus-galli); conditions: for herbicidal effect on H: barnyard grass: amount of applied herbicide 320 g/ha
Method in brief: (§2)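 Plants were sown in alluvial soil held under 0.1–0.5 cm standing water and grown 14 days in a greenhouse at 25–30 °C. An emulsifiable formulation, water-diluted to the set dose, was then sprayed onto the foliage, and effects were scored three weeks later using previously defined criteria.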

[5] = test system: Chinese sprangletop; assay: Test Example 3: herbicidal effect by foliage application, Wagner pot (Table 18, symbol D); type: in vivo, chinese sprangletop (Leptochloa chinensis); conditions: for herbicidal effect on D: Chinese sprangletop: amount of applied herbicide 320 g/ha
Method in brief: as §2

[6] = test system: rice flat sedge; assay: Test Example 3: herbicidal effect by foliage application, Wagner pot (Table 18, symbol E); type: in vivo, rice flat sedge (Cyperus iria); conditions: for herbicidal effect on E: rice flat sedge: amount of applied herbicide 320 g/ha
Method in brief: as §2

[7] = test system: southern crabgrass; assay: Test Example 4: herbicidal effect by soil treatment (Table 19, symbol F); type: in vivo, southern crabgrass (Digitaria ciliaris); conditions: amount of applied herbicide 320 g/ha
Method in brief: (§3)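 Scoring uses the grading scale of an earlier test, three weeks post-application. Treatment consists of spraying a diluted emulsion formulation across the surface of sterilized diluvial soil in which seeds are buried near 1.5 cm deep; boxes are kept in a greenhouse between 25° C. and 30° C.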

[8] = test system: green foxtail; assay: Test Example 4: herbicidal effect by soil treatment (Table 19, symbol G); type: in vivo, green foxtail (Setaria viridis); conditions: amount of applied herbicide 320 g/ha
Method in brief: as §3

[9] = test system: barnyard grass; assay: Test Example 4: herbicidal effect by soil treatment (Table 19, symbol H); type: in vivo, barnyard grass (Echinochloa crus-galli); conditions: amount of applied herbicide 320 g/ha
Method in brief: as §3

[10] = test system: wild oat; assay: Test Example 4: herbicidal effect by soil treatment (Table 19, symbol I); type: in vivo, wild oat (Avena fatua); conditions: amount of applied herbicide 320 g/ha
Method in brief: as §3

[11] = test system: blackgrass; assay: Test Example 4: herbicidal effect by soil treatment (Table 19, symbol J); type: in vivo, blackgrass (Alopecurus myosuroides); conditions: amount of applied herbicide 320 g/ha
Method in brief: as §3

[12] = test system: Italian ryegrass; assay: Test Example 4: herbicidal effect by soil treatment (Table 19, symbol K); type: in vivo, Italian ryegrass (Lolium multiflorum); conditions: amount of applied herbicide 320 g/ha
Method in brief: as §3

[13] = test system: windgrass; assay: Test Example 4: herbicidal effect by soil treatment (Table 19, symbol L); type: in vivo, windgrass (Apera spica-venti); conditions: amount of applied herbicide 320 g/ha
Method in brief: as §3

[14] = test system: velvetleaf; assay: Test Example 4: herbicidal effect by soil treatment (Table 19, symbol M); type: in vivo, velvetleaf (Abutilon theophrasti); conditions: amount of applied herbicide 320 g/ha
Method in brief: as §3

[15] = test system: redroot pigweed; assay: Test Example 4: herbicidal effect by soil treatment (Table 19, symbol N); type: in vivo, redroot pigweed (Amaranthus retroflexus); conditions: amount of applied herbicide 320 g/ha
Method in brief: as §3

[16] = test system: lambsquarters; assay: Test Example 4: herbicidal effect by soil treatment (Table 19, symbol O); type: in vivo, lambsquarters (Chenopodium album); conditions: amount of applied herbicide 320 g/ha
Method in brief: as §3

[17] = test system: chickweed; assay: Test Example 4: herbicidal effect by soil treatment (Table 19, symbol P); type: in vivo, common chickweed (Stellaria media); conditions: amount of applied herbicide 320 g/ha
Method in brief: as §3

[18] = test system: persian speedwell; assay: Test Example 4: herbicidal effect by soil treatment (Table 19, symbol R); type: in vivo, Persian speedwell (Veronica persica); conditions: amount of applied herbicide 320 g/ha
Method in brief: as §3

[19] = test system: southern crabgrass; assay: Test Example 5: herbicidal effect by foliage application, plastic box (Table 20, symbol F); type: in vivo, southern crabgrass (Digitaria ciliaris); conditions: foliage application, 320 g/ha, three weeks after application
Method in brief: (§4)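 Post-emergence foliar test in sterilized diluvial soil. Compound applied as water-diluted emulsion at a predetermined rate to 14-day-old plants; evaluation at three weeks.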

[20] = test system: green foxtail; assay: Test Example 5: herbicidal effect by foliage application, plastic box (Table 20, symbol G); type: in vivo, green foxtail (Setaria viridis); conditions: foliage application, 320 g/ha, three weeks after application
Method in brief: as §4

[21] = test system: barnyard grass; assay: Test Example 5: herbicidal effect by foliage application, plastic box (Table 20, symbol H); type: in vivo, barnyard grass (Echinochloa crus-galli); conditions: foliage application, 320 g/ha, three weeks after application
Method in brief: as §4

[22] = test system: wild oat; assay: Test Example 5: herbicidal effect by foliage application, plastic box (Table 20, symbol I); type: in vivo, wild oat (Avena fatua); conditions: foliage application, 320 g/ha, three weeks after application
Method in brief: as §4

[23] = test system: blackgrass; assay: Test Example 5: herbicidal effect by foliage application, plastic box (Table 20, symbol J); type: in vivo, blackgrass (Alopecurus myosuroides); conditions: foliage application, 320 g/ha, three weeks after application
Method in brief: as §4

[24] = test system: Italian ryegrass; assay: Test Example 5: herbicidal effect by foliage application, plastic box (Table 20, symbol K); type: in vivo, Italian ryegrass (Lolium multiflorum); conditions: foliage application, 320 g/ha, three weeks after application
Method in brief: as §4

[25] = test system: velvetleaf; assay: Test Example 5: herbicidal effect by foliage application, plastic box (Table 20, symbol M); type: in vivo, velvetleaf (Abutilon theophrasti); conditions: foliage application, 320 g/ha, three weeks after application
Method in brief: as §4

[26] = test system: lambsquarters; assay: Test Example 5: herbicidal effect by foliage application, plastic box (Table 20, symbol O); type: in vivo, lambsquarters (Chenopodium album); conditions: foliage application, 320 g/ha, three weeks after application
Method in brief: as §4

[27] = test system: persian speedwell; assay: Test Example 5: herbicidal effect by foliage application, plastic box (Table 20, symbol R); type: in vivo, Persian speedwell (Veronica persica); conditions: foliage application, 320 g/ha, three weeks after application
Method in brief: as §4

[28] = amount of applied herbicide 320 g/ha

## Cc1nn(C)c(=O)c(-c2c(-c3ccc(OC(F)F)cc3)sc3ccc(Cl)cc23)c1O [2-374]
[1]
  Herbicidal effect on A: late watergrass (grade 0-5): 3 (Herbicidal rate of 40% or more and less than 70%)
[2]
  Herbicidal effect on B: Japanese bulrush (grade 0-5): 0 (Herbicidal rate of 5% or less (almost no effect))
[3]
  Herbicidal effect on C: oval-leafed pondweed (grade 0-5): 0 (Herbicidal rate of 5% or less (almost no effect))
[4]
  herbicidal effect on H: barnyard grass: 5 (Herbicidal rate of 90% or more (almost completely withered))
[5]
  herbicidal effect on D: Chinese sprangletop: 4 (Herbicidal rate of 70% or more and less than 90%)
[6]
  herbicidal effect on E: rice flat sedge: 5 (Herbicidal rate of 90% or more (almost completely withered))
[7]
  herbicidal effect, F: southern crabgrass: 4 (Herbicidal rate of 70% or more and less than 90%)
[8]
  herbicidal effect, G: green foxtail: 1 (Herbicidal rate of 5% or more and less than 20%)
[9]
  herbicidal effect, H: barnyard grass: 4 (Herbicidal rate of 70% or more and less than 90%)
[10]
  herbicidal effect, I: wild oat: 0 (Herbicidal rate of 5% or less (almost no effect))
[11]
  herbicidal effect, J: blackgrass: 3 (Herbicidal rate of 40% or more and less than 70%)
[12]
  herbicidal effect, K: Italian ryegrass: 4 (Herbicidal rate of 70% or more and less than 90%)
[13]
  herbicidal effect, L: windgrass: 5 (Herbicidal rate of 90% or more (almost completely withered))
[14]
  herbicidal effect, M: velvetleaf: 3 (Herbicidal rate of 40% or more and less than 70%)
[15]
  herbicidal effect, N: redroot pigweed: 4 (Herbicidal rate of 70% or more and less than 90%)
[16]
  herbicidal effect, O: lambsquarters: 5 (Herbicidal rate of 90% or more (almost completely withered))
[17]
  herbicidal effect, P: chickweed: 3 (Herbicidal rate of 40% or more and less than 70%)
[18]
  herbicidal effect, R: persian speedwell: 5 (Herbicidal rate of 90% or more (almost completely withered))

## CCCC(=O)Oc1c(C)nn(C)c(=O)c1-c1c(-c2cnccc2Cl)sc2ccc(F)cc12 [2-386]
[1]
  Herbicidal effect on A: late watergrass (grade 0-5): 2 (Herbicidal rate of 20% or more and less than 40%)
[2]
  Herbicidal effect on B: Japanese bulrush (grade 0-5): 0 (Herbicidal rate of 5% or less (almost no effect))
[3]
  Herbicidal effect on C: oval-leafed pondweed (grade 0-5): 0 (Herbicidal rate of 5% or less (almost no effect))
[4]
  herbicidal effect on H: barnyard grass: 5 (Herbicidal rate of 90% or more (almost completely withered))
[5]
  herbicidal effect on D: Chinese sprangletop: 4 (Herbicidal rate of 70% or more and less than 90%)
[6]
  herbicidal effect on E: rice flat sedge: 3 (Herbicidal rate of 40% or more and less than 70%)
[7]
  herbicidal effect, F: southern crabgrass: 4 (Herbicidal rate of 70% or more and less than 90%)
[8]
  herbicidal effect, G: green foxtail: 3 (Herbicidal rate of 40% or more and less than 70%)
[9]
  herbicidal effect, H: barnyard grass: 4 (Herbicidal rate of 70% or more and less than 90%)
[10]
  herbicidal effect, I: wild oat: 1 (Herbicidal rate of 5% or more and less than 20%)
[11]
  herbicidal effect, J: blackgrass: 0 (Herbicidal rate of 5% or less (almost no effect))
[12]
  herbicidal effect, K: Italian ryegrass: 4 (Herbicidal rate of 70% or more and less than 90%)
[13]
  herbicidal effect, L: windgrass: 2 (Herbicidal rate of 20% or more and less than 40%)
[14]
  herbicidal effect, M: velvetleaf: 1 (Herbicidal rate of 5% or more and less than 20%)
[15]
  herbicidal effect, N: redroot pigweed: 4 (Herbicidal rate of 70% or more and less than 90%)
[16]
  herbicidal effect, O: lambsquarters: 4 (Herbicidal rate of 70% or more and less than 90%)
[17]
  herbicidal effect, P: chickweed: 5 (Herbicidal rate of 90% or more (almost completely withered))
[18]
  herbicidal effect, R: persian speedwell: 5 (Herbicidal rate of 90% or more (almost completely withered))

## CCOc1cc(F)ccc1-c1sc2cc(OC)c(Cl)cc2c1-c1c(O)c(C)nn(C)c1=O [5-077]
[1]; [28]
  Herbicidal effect, A: late watergrass: 2 (Herbicidal rate of 20% or more and less than 40%)
[2]; [28]
  Herbicidal effect, B: Japanese bulrush: 0 (Herbicidal rate of 5% or less (almost no effect))
[3]; [28]
  Herbicidal effect, C: oval-leafed pondweed: 4 (Herbicidal rate of 70% or more and less than 90%)
[4]; 320 g/ha
  herbicidal effect on barnyard grass (H): 5 (Herbicidal rate of 90% or more (almost completely withered))
[5]; 320 g/ha
  herbicidal effect on Chinese sprangletop (D): 2 (Herbicidal rate of 20% or more and less than 40%)
[6]; 320 g/ha
  herbicidal effect on rice flat sedge (E): 4 (Herbicidal rate of 70% or more and less than 90%)
[7]
  F: southern crabgrass, herbicidal effect grade: 2 (Herbicidal rate of 20% or more and less than 40%)
[8]
  G: green foxtail, herbicidal effect grade: 0 (Herbicidal rate of 5% or less (almost no effect))
[9]
  H: barnyard grass, herbicidal effect grade: 0 (Herbicidal rate of 5% or less (almost no effect))
[10]
  I: wild oat, herbicidal effect grade: 0 (Herbicidal rate of 5% or less (almost no effect))
[11]
  J: blackgrass, herbicidal effect grade: 0 (Herbicidal rate of 5% or less (almost no effect))
[12]
  K: Italian ryegrass, herbicidal effect grade: 0 (Herbicidal rate of 5% or less (almost no effect))
[13]
  L: windgrass, herbicidal effect grade: 0 (Herbicidal rate of 5% or less (almost no effect))
[14]
  M: velvetleaf, herbicidal effect grade: 0 (Herbicidal rate of 5% or less (almost no effect))
[15]
  N: redroot pigweed, herbicidal effect grade: 3 (Herbicidal rate of 40% or more and less than 70%)
[16]
  O: lambsquarters, herbicidal effect grade: 3 (Herbicidal rate of 40% or more and less than 70%)
[17]
  P: chickweed, herbicidal effect grade: 0 (Herbicidal rate of 5% or less (almost no effect))
[18]
  R: persian speedwell, herbicidal effect grade: 0 (Herbicidal rate of 5% or less (almost no effect))
[19]
  herbicidal effect on southern crabgrass (F): 5 (Herbicidal rate of 90% or more (almost completely withered))
[20]
  herbicidal effect on green foxtail (G): 5 (Herbicidal rate of 90% or more (almost completely withered))
[21]
  herbicidal effect on barnyard grass (H): 5 (Herbicidal rate of 90% or more (almost completely withered))
[22]
  herbicidal effect on wild oat (I): 3 (Herbicidal rate of 40% or more and less than 70%)
[23]
  herbicidal effect on blackgrass (J): 3 (Herbicidal rate of 40% or more and less than 70%)
[24]
  herbicidal effect on Italian ryegrass (K): 0 (Herbicidal rate of 5% or less (almost no effect))
[25]
  herbicidal effect on velvetleaf (M): 3 (Herbicidal rate of 40% or more and less than 70%)
[26]
  herbicidal effect on lambsquarters (O): 5 (Herbicidal rate of 90% or more (almost completely withered))
[27]
  herbicidal effect on persian speedwell (R): 4 (Herbicidal rate of 70% or more and less than 90%)
